Reference: ChEMBL document CHEMBL1201862, “PubChem BioAssay data set” (2004)
Activity calls are given as the source filed them. No stated cut-off is given here; in the data, actives have a measured IC50 and inactives only a lower limit.

Tests used:
Assay type in all cases: functional
Caspase-3 [1] = molecular target: T1, Caspase-3 (Homo sapiens, UniProt P42574); assay: SAR Analysis of small molecule inhibitors of Sentrin-specific proteases (SENPs) using a Caspase-3 Selectivity assay. [Related pubchem assays (depositor defined):AID2540, AID2599, AID434973, AID489001]
T1 sequence (P42574 whole entry): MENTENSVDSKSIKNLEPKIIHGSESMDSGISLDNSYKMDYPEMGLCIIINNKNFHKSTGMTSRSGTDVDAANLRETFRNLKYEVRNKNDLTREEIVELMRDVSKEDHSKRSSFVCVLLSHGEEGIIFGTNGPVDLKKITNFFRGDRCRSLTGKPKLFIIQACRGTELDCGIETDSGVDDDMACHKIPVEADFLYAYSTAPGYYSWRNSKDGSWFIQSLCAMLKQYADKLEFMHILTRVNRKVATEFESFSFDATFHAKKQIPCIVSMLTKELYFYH

[2] = molecular target: T2, Sentrin-specific protease 8 (Homo sapiens, UniProt Q96LD8); assay: inhibition of human SENP8 cleavage activity – biochemical, luminescence, SAR follow-up (AID 504501)
T2 sequence (Q96LD8 whole entry): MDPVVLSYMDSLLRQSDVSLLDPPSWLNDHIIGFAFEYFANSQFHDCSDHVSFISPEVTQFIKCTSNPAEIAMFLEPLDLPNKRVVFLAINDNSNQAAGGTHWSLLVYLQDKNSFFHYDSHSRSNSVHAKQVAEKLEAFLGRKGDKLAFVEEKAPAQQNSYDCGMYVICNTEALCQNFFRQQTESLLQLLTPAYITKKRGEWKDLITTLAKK

[3] = molecular target: T3, Sentrin-specific protease 6 (Homo sapiens, UniProt Q9GZR1); assay: SAR Analysis of small molecule inhibitors of Sentrin-specific protease 6 (SENP6) using a Luminescent assay. [Related pubchem assays (depositor defined):AID2582, AID2599]
T3 sequence (Q9GZR1 whole entry): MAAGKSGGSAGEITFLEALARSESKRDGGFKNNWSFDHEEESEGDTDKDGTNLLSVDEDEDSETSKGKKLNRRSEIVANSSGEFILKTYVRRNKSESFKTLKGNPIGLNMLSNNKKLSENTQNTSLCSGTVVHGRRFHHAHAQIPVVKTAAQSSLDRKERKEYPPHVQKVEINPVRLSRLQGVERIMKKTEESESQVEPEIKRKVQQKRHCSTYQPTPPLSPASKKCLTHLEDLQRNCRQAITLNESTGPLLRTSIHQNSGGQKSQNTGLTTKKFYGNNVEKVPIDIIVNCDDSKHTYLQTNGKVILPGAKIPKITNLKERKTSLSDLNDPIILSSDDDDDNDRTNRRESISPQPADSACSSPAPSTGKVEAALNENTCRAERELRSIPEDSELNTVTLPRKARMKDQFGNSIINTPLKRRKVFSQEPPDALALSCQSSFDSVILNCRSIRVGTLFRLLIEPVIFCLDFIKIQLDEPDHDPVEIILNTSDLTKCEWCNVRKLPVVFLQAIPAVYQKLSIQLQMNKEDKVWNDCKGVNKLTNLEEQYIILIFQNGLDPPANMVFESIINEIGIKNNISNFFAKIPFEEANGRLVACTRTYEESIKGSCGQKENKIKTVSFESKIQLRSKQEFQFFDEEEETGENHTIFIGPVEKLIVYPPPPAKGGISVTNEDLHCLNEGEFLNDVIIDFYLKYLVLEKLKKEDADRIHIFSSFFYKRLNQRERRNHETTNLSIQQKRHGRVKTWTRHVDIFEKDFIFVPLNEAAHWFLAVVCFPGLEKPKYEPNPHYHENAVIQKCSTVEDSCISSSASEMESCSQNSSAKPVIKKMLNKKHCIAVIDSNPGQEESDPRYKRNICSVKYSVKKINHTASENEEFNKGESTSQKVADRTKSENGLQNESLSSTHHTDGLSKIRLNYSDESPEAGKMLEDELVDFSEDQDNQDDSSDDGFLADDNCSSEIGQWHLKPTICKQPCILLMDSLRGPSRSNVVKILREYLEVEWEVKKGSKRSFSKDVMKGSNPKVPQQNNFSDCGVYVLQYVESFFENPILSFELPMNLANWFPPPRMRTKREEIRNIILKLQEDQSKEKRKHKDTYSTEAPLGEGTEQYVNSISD

[4] = molecular target: T4, Sentrin-specific protease 7 (Homo sapiens, UniProt Q9BQF6); assay: inhibition of human SENP7 cleavage activity – biochemical, luminescence, SAR follow-up (AID 504497)
T4 sequence (Q9BQF6 whole entry): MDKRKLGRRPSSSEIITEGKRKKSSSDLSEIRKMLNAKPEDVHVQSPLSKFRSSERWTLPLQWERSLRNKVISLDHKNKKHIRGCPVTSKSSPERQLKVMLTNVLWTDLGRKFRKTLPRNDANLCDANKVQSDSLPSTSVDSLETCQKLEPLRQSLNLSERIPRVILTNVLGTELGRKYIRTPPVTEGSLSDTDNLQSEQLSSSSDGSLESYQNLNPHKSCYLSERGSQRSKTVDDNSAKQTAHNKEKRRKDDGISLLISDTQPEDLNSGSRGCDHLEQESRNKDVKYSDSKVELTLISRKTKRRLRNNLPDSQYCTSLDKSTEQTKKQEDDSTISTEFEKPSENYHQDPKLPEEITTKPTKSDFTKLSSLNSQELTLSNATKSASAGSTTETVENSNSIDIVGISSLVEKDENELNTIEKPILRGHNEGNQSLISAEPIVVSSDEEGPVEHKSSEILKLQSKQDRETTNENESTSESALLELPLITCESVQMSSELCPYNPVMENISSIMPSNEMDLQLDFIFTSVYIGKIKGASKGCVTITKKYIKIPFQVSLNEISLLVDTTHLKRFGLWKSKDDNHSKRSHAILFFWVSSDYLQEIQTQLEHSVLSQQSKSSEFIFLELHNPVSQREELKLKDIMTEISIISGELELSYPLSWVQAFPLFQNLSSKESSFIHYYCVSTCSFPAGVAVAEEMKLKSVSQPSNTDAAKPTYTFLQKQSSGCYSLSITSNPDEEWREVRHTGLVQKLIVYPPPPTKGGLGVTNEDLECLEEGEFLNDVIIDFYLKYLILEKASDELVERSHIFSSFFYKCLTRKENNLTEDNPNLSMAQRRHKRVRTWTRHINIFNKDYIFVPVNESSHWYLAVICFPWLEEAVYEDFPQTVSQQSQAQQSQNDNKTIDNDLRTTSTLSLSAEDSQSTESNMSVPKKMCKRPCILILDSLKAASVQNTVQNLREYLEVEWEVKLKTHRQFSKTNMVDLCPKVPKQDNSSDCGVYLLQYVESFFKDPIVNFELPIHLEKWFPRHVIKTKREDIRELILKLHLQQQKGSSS

Caspase-3 [5] = molecular target: T1, Caspase-3; assay: inhibition of recombinant caspase-3 activity – biochemical, luminescence, set 2, selectivity assay for SENP protease inhibitor project, SAR follow-up (AID 588599)
[6] = molecular target: T3, Sentrin-specific protease 6; assay: inhibition of human SENP6 catalytic domain – biochemical, luminescence, set 2, SAR follow-up (AID 588598)
[7] = molecular target: T2, Sentrin-specific protease 8; assay: inhibition of sentrin protease 8 – biochemical, luminescence, set 2, SAR follow-up (AID 588601)
[8] = molecular target: T4, Sentrin-specific protease 7; assay: inhibition of human SENP7 cleavage activity – biochemical, luminescence, set 2, SAR follow-up (AID 588600)

SMILES	IC50 (Caspase-3 [1])	IC50 [2]	IC50 [3]	IC50 [4]	IC50 (Caspase-3 [5])	IC50 [6]	IC50 [7]	IC50 [8]
CCC(=O)c1ccc(OCC(=O)N(c2ccccc2)c2nc(-c3ccccc3)ns2)cc1	> 99 µM (inactive)	96.7 µM (active)	65.1 µM (active)	32 µM (active)	–	–	–	–
COc1ccc2nc(NC(=O)c3ccccc3NS(=O)(=O)c3ccc4c(c3)OCCO4)sc2c1	–	–	–	–	> 99 µM (inactive)	> 99 µM (inactive)	> 99 µM (inactive)	> 99 µM (inactive)
